According to ChEMBL document CHEMBL1146943, “Synthesis, in vitro and in vivo evaluation of [O-methyl-11C] 2-{4-[4-(3-methoxyphenyl)piperazin-1-yl]-butyl}-4-methyl-2H-[1,2,4]-triazine-3,5-dione: a novel agonist 5-HT1A receptor PET ligand” (Bioorg Med Chem Lett, 2006):

Columns and labels:
[1] = Binding affinity to VMAT by radioligand binding assay
[2] = Binding affinity to NK receptor by radioligand binding assay
Baboon = assay: Penetration through blood-brain barrier in baboon; format: ADME, organism-based, Papio; conditions: in vivo
[3] = Binding affinity to calcium channel by radioligand binding assay
[4] = molecular target: Sigma non-opioid intracellular receptor 1 (Homo sapiens, UniProt Q99720); assay: Binding affinity to sigma1 opioid receptor by radioligand binding assay
[5] = Binding affinity to V receptor by radioligand binding assay
D(4) dopamine receptor = D(4) dopamine receptor (Homo sapiens, UniProt P21917); assay: Binding affinity to D4 receptor by radioligand binding assay
[6] = molecular target: Muscarinic acetylcholine receptor; assay: Binding affinity to M receptor by radioligand binding assay; format: protein assay
[7] = molecular target: 5-hydroxytryptamine receptor 2A (Homo sapiens, UniProt P28223); assay: Binding affinity to 5HT2A receptor by radioligand binding assay
[8] = molecular target: Sodium-dependent dopamine transporter (Homo sapiens, UniProt Q01959); assay: Binding affinity to DAT by radioligand binding assay
Histamine H3 receptor = Histamine H3 receptor (Homo sapiens, UniProt Q9Y5N1); assay: Binding affinity to histamine H3 receptor by radioligand binding assay
[9] = molecular target: Glutamate [NMDA] receptor; assay: Binding affinity to NMDA receptor by radioligand binding assay; format: protein-complex assay
[10] = molecular target: Voltage-gated inwardly rectifying potassium channel KCNH2 (Homo sapiens, UniProt Q12809); assay: Binding affinity to hERG by radioligand binding assay
[11] = molecular target: 5-hydroxytryptamine receptor 5A (Homo sapiens, UniProt P47898); assay: Binding affinity to 5HT5A receptor by radioligand binding assay
[12] = molecular target: Glutamate receptor ionotropic AMPA (Homo sapiens, UniProt P42261+P42262+P42263+P48058); assay: Binding affinity to AMPA receptor by radioligand binding assay; format: protein-complex assay
[13] = molecular target: GABA-A receptor; anion channel; assay: Binding affinity to GABA receptor by radioligand binding assay; format: protein-complex assay
D(3) dopamine receptor = D(3) dopamine receptor (Homo sapiens, UniProt P35462); assay: Binding affinity to D3 receptor by radioligand binding assay
[14] = molecular target: 5-hydroxytryptamine receptor 1A (Homo sapiens) (UniProt P08908); assay: Agonist activity assessed by stimulation of [35S]GTP-gamma-S binding to human 5HT1A receptor expressed in CHO cells relative to 5-HT; format: functional, cell-based
[15] = molecular target: Alpha-2A adrenergic receptor (Homo sapiens, UniProt P08913); assay: Binding affinity to alpha 2A adrenergic receptor by radioligand binding assay
[16] = molecular target: Glutamate receptor ionotropic kainate; assay: Binding affinity to KAR by radioligand binding assay; format: protein-complex assay
Histamine H2 receptor = Histamine H2 receptor (Homo sapiens, UniProt P25021); assay: Binding affinity to histamine H2 receptor by radioligand binding assay
[17] = molecular target: Alpha-1A adrenergic receptor (Homo sapiens, UniProt P35348); assay: Binding affinity to alpha 1A adrenergic receptor by radioligand binding assay
[18] = Binding affinity to EP receptor by radioligand binding assay
Adenosine A2 receptor = Adenosine A2 receptor (Homo sapiens, UniProt P29275+P29274); assay: Binding affinity to adenosine A2 receptor by radioligand binding assay; format: protein assay
Adenosine receptor A2a = Adenosine receptor A2a (Homo sapiens, UniProt P29274); assay: Binding affinity to adenosine […] receptor by radioligand binding assay
Histamine H1 receptor = Histamine H1 receptor (Homo sapiens, UniProt P35367); assay: Binding affinity to histamine H1 receptor by radioligand binding assay
[19] = molecular target: 5-hydroxytryptamine receptor 6 (Homo sapiens, UniProt P50406); assay: Binding affinity to 5HT6 receptor by radioligand binding assay
Adenosine receptor A1 = Adenosine receptor A1 (Homo sapiens, UniProt P30542); assay: Binding affinity to adenosine A1 receptor by radioligand binding assay
D(1B) dopamine receptor = D(1B) dopamine receptor (Homo sapiens, UniProt P21918); assay: Binding affinity to D5 dopamine receptor by radioligand binding assay
[20] = molecular target: Alpha-1B adrenergic receptor (Homo sapiens, UniProt P35368); assay: Binding affinity to alpha 1B adrenergic receptor by radioligand binding assay
[21] = molecular target: 5-hydroxytryptamine receptor 1E (Homo sapiens, UniProt P28566); assay: Binding affinity to 5HT1E receptor by radioligand binding assay
Adenosine receptor A3 = Adenosine receptor A3 (Homo sapiens, UniProt P0DMS8); assay: Binding affinity to adenosine A3 receptor by radioligand binding assay
[22] = molecular target: 5-hydroxytryptamine receptor 1B (Homo sapiens, UniProt P28222); assay: Binding affinity to 5HT1B receptor by radioligand binding assay
[23] = molecular target: Delta-type opioid receptor (Homo sapiens, UniProt P41143); assay: Binding affinity to DOR by radioligand binding assay
[24] = molecular target: Serotonin 3 (5-HT3) receptor; assay: Binding affinity to 5HT3 receptor by radioligand binding assay; format: protein-complex assay, Homo sapiens
[25] = molecular target: Alpha-2C adrenergic receptor (Homo sapiens, UniProt P18825); assay: Binding affinity to alpha 2C adrenergic receptor by radioligand binding assay
[26] = molecular target: T1, 5-hydroxytryptamine receptor 1A (Homo sapiens, UniProt P08908); assay: Agonist activity assessed by stimulation of [35S]GTP-gamma-S binding to human 5HT1A receptor expressed in CHO cells; format: functional, cell-based
[27] = molecular target: Sodium-dependent serotonin transporter (Homo sapiens, UniProt P31645); assay: Binding affinity to SERT by radioligand binding assay
[28] = molecular target: Sodium-dependent noradrenaline transporter (Homo sapiens, UniProt P23975); assay: Binding affinity to NET by radioligand binding assay
Translocator protein = Translocator protein (Homo sapiens, UniProt P30536); assay: Binding affinity to BZP receptor by radioligand binding assay
[29] = molecular target: 5-hydroxytryptamine receptor 7 (Homo sapiens, UniProt P34969); assay: Binding affinity to 5HT7 receptor by radioligand binding assay
D(2) dopamine receptor = D(2) dopamine receptor (Homo sapiens, UniProt P14416); assay: Binding affinity to D2 dopamine receptor by radioligand binding assay
[30] = Binding affinity to sodium channel by radioligand binding assay
[31] = molecular target: 5-hydroxytryptamine receptor 2B (Homo sapiens, UniProt P41595); assay: Binding affinity to 5HT2B receptor by radioligand binding assay
[32] = Binding affinity to mGluR by radioligand binding assay; parameters: species or system Homo sapiens
Histamine H4 receptor = Histamine H4 receptor (Homo sapiens, UniProt Q9H3N8); assay: Binding affinity to histamine H4 receptor by radioligand binding assay
[33] = molecular target: ATP-dependent translocase ABCB1 (Homo sapiens, UniProt P08183); assay: Binding affinity to MDR1 by radioligand binding assay
[34] = molecular target: T1, 5-hydroxytryptamine receptor 1A; assay: Binding affinity to 5HT1A receptor by radioligand binding assay
[35] = molecular target: Kappa-type opioid receptor (Homo sapiens, UniProt P41145); assay: Binding affinity to KOR by radioligand binding assay

T1 sequence (P08908 whole entry): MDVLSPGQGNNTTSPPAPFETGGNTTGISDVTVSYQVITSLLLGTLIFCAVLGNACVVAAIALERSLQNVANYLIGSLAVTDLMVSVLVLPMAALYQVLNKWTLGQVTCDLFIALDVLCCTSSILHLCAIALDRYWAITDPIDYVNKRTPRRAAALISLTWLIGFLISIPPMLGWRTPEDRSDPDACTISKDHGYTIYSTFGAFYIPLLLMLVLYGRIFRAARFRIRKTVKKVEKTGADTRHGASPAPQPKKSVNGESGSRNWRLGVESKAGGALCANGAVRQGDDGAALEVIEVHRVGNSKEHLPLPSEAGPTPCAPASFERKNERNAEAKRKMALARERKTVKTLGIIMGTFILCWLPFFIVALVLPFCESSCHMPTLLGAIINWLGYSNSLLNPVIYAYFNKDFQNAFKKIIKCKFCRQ
Chain of D(4) dopamine receptor (P21917 whole entry): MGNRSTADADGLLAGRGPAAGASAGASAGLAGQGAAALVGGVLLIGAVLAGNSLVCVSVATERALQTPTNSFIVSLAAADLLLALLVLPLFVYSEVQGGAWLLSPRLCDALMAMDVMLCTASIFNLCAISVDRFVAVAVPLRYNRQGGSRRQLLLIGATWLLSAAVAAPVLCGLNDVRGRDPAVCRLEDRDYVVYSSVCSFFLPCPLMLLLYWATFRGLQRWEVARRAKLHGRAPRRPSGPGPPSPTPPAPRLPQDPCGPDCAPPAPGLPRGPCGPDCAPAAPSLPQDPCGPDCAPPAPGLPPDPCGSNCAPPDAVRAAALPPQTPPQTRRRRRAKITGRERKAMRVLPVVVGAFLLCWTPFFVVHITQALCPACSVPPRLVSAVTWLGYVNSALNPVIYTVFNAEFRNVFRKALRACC
Chain of Adenosine receptor A2a (P29274 whole entry): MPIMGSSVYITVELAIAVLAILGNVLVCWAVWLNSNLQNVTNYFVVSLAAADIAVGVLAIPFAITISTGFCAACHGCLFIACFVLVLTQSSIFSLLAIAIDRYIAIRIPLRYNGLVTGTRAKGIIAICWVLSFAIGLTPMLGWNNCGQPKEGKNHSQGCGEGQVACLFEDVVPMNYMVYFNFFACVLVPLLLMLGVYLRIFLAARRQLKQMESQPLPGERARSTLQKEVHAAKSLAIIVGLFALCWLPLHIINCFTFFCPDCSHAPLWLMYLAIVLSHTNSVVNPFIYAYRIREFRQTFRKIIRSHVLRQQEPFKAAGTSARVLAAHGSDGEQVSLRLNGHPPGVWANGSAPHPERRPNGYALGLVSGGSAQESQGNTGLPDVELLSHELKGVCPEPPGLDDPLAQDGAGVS
Chain of Alpha-1B adrenergic receptor (P35368 whole entry): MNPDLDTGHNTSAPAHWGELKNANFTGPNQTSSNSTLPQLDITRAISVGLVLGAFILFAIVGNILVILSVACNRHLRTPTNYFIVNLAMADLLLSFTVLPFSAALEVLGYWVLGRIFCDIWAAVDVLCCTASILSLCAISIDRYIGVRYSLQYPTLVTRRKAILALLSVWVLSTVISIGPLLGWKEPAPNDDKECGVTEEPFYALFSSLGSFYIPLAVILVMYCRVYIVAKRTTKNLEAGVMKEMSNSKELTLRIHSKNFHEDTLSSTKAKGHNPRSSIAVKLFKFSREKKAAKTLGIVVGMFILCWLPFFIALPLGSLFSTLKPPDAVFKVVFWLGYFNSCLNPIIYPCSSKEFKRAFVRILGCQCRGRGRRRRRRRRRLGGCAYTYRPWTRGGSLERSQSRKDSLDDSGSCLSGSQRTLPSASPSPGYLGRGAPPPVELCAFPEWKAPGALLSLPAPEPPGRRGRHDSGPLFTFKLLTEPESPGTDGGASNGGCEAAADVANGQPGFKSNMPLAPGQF
Chain of Translocator protein (P30536 whole entry): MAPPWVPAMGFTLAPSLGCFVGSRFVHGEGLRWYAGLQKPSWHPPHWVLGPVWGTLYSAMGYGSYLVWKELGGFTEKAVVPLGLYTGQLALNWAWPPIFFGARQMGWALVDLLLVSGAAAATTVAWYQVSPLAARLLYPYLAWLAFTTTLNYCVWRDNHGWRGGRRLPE
Chain of Sigma non-opioid intracellular receptor 1 (Q99720 whole entry): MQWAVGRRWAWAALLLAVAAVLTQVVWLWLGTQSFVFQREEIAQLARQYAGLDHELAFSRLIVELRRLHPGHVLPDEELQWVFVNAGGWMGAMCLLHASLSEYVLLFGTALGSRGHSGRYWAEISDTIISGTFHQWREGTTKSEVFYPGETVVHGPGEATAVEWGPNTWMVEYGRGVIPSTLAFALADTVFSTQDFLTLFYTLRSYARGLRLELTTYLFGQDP
Chain of Delta-type opioid receptor (P41143 whole entry): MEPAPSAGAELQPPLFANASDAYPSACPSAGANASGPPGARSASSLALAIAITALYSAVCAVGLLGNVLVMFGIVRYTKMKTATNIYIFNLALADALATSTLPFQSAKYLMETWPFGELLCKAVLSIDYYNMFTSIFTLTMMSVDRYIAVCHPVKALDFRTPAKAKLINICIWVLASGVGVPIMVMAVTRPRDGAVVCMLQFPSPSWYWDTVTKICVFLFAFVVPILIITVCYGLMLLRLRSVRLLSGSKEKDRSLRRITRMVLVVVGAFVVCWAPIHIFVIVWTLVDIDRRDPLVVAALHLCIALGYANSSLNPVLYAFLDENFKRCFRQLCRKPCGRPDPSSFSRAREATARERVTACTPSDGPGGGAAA
Chain of 5-hydroxytryptamine receptor 1B (P28222 whole entry): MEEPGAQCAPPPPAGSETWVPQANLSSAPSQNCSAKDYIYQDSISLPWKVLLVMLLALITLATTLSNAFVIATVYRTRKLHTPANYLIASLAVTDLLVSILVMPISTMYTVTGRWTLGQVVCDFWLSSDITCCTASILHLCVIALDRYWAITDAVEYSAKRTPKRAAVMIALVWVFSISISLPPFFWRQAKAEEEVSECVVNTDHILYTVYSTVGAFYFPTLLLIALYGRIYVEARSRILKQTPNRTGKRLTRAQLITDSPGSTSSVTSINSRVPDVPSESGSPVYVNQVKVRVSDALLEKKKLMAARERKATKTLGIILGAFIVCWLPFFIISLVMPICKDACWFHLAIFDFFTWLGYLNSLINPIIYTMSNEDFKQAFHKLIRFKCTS
Chain of Alpha-2C adrenergic receptor (P18825 whole entry): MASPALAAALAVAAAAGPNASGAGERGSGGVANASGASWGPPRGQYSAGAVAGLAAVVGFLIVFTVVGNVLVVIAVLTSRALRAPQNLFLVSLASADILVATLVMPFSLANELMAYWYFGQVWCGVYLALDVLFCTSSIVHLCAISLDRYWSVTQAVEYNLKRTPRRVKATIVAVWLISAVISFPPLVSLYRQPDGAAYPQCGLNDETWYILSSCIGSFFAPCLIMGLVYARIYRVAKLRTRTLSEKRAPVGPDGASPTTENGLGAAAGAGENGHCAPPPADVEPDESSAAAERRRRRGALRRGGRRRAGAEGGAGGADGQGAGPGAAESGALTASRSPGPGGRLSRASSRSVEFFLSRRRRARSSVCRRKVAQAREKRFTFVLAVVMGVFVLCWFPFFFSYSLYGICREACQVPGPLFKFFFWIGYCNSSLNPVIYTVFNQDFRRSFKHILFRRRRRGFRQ
Chain of Adenosine receptor A1 (P30542 whole entry): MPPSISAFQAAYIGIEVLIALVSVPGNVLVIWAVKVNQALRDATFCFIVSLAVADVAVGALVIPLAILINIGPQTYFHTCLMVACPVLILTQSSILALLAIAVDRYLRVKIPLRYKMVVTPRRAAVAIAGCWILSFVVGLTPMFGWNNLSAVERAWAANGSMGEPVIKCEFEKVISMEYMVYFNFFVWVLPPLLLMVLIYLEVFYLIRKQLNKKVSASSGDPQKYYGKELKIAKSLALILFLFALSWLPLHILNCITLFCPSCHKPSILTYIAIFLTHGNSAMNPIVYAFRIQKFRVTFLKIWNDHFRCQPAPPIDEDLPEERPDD
Chain of 5-hydroxytryptamine receptor 2B (P41595 whole entry): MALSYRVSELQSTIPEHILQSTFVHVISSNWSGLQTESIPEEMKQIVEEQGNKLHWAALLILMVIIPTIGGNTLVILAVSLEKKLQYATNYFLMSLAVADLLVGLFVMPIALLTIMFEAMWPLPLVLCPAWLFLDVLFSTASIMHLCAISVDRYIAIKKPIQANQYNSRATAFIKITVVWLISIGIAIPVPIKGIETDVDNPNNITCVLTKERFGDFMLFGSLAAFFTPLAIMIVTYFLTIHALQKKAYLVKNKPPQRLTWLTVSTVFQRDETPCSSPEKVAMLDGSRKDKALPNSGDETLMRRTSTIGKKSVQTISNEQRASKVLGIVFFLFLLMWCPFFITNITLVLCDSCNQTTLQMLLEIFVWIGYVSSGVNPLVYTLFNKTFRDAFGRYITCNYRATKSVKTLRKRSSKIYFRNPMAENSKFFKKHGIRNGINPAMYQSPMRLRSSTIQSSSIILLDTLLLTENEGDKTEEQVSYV
Chain of Sodium-dependent dopamine transporter (Q01959 whole entry): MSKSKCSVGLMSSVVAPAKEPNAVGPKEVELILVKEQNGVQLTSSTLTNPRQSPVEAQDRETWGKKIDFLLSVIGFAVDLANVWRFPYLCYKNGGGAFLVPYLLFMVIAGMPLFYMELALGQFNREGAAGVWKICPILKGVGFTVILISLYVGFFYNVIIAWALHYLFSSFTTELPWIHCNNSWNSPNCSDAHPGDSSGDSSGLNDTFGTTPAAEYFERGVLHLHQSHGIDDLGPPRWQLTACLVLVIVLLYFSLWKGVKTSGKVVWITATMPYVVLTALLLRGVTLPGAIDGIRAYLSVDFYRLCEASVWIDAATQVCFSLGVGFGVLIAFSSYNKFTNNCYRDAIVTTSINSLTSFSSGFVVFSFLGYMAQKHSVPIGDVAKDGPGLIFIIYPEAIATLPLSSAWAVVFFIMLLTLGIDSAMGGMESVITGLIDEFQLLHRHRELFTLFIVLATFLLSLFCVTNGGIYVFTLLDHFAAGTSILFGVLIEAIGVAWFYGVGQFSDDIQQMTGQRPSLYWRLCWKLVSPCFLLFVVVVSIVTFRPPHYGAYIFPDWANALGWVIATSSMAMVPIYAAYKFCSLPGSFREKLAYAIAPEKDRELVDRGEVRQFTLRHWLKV
Chain of 5-hydroxytryptamine receptor 1A (Homo sapiens) (P08908 whole entry): as the sequence (P08908 whole entry) above

COc1cccc(N2CCN(CCCCn3ncc(=O)n(C)c3=O)CC2)c1
Ki [1]: > 10 µM | Ki [2]: > 10 µM | Activity (Baboon): Active | Ki [3]: > 10 µM | Ki [4]: 0.18 µM | Ki [5]: > 10 µM | Ki (D(4) dopamine receptor): > 10 µM | Ki [6]: > 10 µM | Ki [7]: 2.1 µM | Ki [8]: > 10 µM | Ki (Histamine H3 receptor): > 10 µM | Ki [9]: > 10 µM | Ki [10]: > 10 µM | Ki [11]: > 10 µM | Ki [12]: > 10 µM | Ki [13]: > 10 µM | Ki (D(3) dopamine receptor): > 10 µM | Emax [14]: 95% | Ki [15]: 0.25 µM | Ki [16]: > 10 µM | Ki (Histamine H2 receptor): 2.13 µM | Ki [17]: 0.413 µM | Ki [18]: > 10 µM | Ki (Adenosine A2 receptor): > 10 µM | Ki (Adenosine receptor A2a): > 10 µM | Ki (Histamine H1 receptor): 0.839 µM | Ki [19]: > 10 µM | Ki (Adenosine receptor A1): > 10 µM | Ki (D(1B) dopamine receptor): > 10 µM | Ki [20]: 0.378 µM | Ki [21]: > 10 µM | Ki (Adenosine receptor A3): > 10 µM | Ki [22]: 0.228 µM | Ki [23]: > 10 µM | Ki [24]: > 10 µM | Ki [25]: 0.109 µM | EC50 [26]: 0.0003 µM | Ki [27]: > 10 µM | Ki [28]: > 10 µM | Ki (Translocator protein): > 10 µM | Ki [29]: 0.328 µM | Ki (D(2) dopamine receptor): 2.58 µM | Ki [30]: > 10 µM | Ki [31]: 0.0337 µM | Ki [32]: > 10 µM | Ki (Histamine H4 receptor): > 10 µM | Ki [33]: > 10 µM | Ki [34]: 0.0011 µM | Ki [35]: > 10 µM
